Patent US5260271A, “Nisin compositions for use as enhanced broad range bactericides” (Applied Microbiology, Inc., priority 1992, dated 1993)
Where no end group is shown, it is not given here.

What was measured:
[1] = tested on: S. typhimurium on chicken muscle; test: Bactericidal activity towards S. typhimurium on chicken muscle (unadhered cells); type: cell-based, Salmonella typhimurium; conditions: chicken muscle, EDTA 0 mM
Protocol: Incubations were performed in either 50 mM sodium acetate, pH 5.0, or 20 mM Tris, pH 8.0 at 37° C.
Cubes of chicken muscle were cleansed with sodium hypochlorite and povidone iodine prior to use. To inoculate the tissue, the cubes of chicken muscle were dipped into a 10^8 cells/ml suspension of S. typhimurium in 20 mM Tris HCl, pH 8.0. Excess moisture was removed from dipped cubes by tapping. The chicken samples were placed into sufficient buffer containing the nisin composition to cover the tissue and incubated for 2 hours at 37° C. after which the tissue was removed to sufficient Phage buffer to cover the tissue. The bacteria remaining in the test solution were collected by centrifugation, washed with Phage buffer, and combined with bacteria washed from the tissue by Phage buffer. The combined samples (termed "unadhered" cells) were serially diluted and 100 μl aliquots were plated for determination of surviving bacteria.
(§1) Cubes of chicken muscle were cleansed with sodium hypochlorite and povidone iodine prior to use. To inoculate the tissue, the cubes of chicken muscle were dipped into a 10^8 cells/ml suspension of S. typhimurium in 20 mM Tris HCl, pH 8.0. Excess moisture was removed from dipped cubes by tapping. The tissue was placed into sufficient buffer containing the nisin compositions to cover the tissue, and incubated for 2 hours at 37° C. after which the tissue was removed to sufficient Phage buffer to cover the tissue. The bacteria remaining in the test solution were collected by centrifugation, washed with Phage buffer, and combined with bacteria washed from the tissue by Phage buffer. The combined samples (termed "unadhered" cells) were serially diluted and 100 μl aliquots were plated for determination of surviving bacteria.
as §1, with “cleaned” for “cleansed”, “50” for “20”, “sodium acetate buffer,” for “Tris HCl,”, “5.0.” for “8.0.”, “containing” for “containing the”

[2] = tested on: K. pneumoniae; test: Bactericidal activity, percent bacterial survival of K. pneumoniae suspension; type: cell-based, Klebsiella pneumoniae; conditions: EDTA 0 mM, 20 mM Tris pH 8.0
Protocol: (§2) All tests in the following examples were performed at 37° C. The efficacy of the enhanced broad range bactericides was determined by assaying bactericidal activity as measured by the percent bacterial survival after treatment with the bactericide. Generally, after incubation of a 10^7 cell per ml suspension of target species with the novel bactericide for specified lengths of time, bacteria were collected by centrifugation for 2 minutes. […] Surviving bacteria were determined by scoring colony forming units (CFU) after incubation for 24-48 hours at 37° C.
The effect was measured as a function of percentage bacterial survival after 2 hours.

[3] = tested on: S. typhimurium; test: Bactericidal activity, percent bacterial survival of S. typhimurium suspension; type: cell-based, Salmonella typhimurium; conditions: for Percentage S. typhimurium Survival at 3 hours / % Survival at 2 hours: EDTA 0 mM
Protocol: as §2
The control (Test #1) is identical to the control of Example 1 (Table 1).

[4] = tested on: E. coli; test: Bactericidal activity, percent bacterial survival of E. coli suspension; type: cell-based, Escherichia coli; conditions: EDTA 0 mM, Triton X-100 0%, 20 mM Tris pH 8.0
Protocol: as §2
The effects of the bactericide were measured as a function of percentage bacteria survival after 2 hours.
Incubations were performed in 20 mM Tris, […] at 37° C.

[5] = tested on: Coryneform bacteria; test: Bactericidal activity towards Coryneform bacteria; type: cell-based; conditions: pH 8.0, Nisin 3 μg/ml, EDTA 0 mM
Protocol: (§3) All tests in the following examples were performed at 37° C. The efficacy of the enhanced broad range bactericides was determined by assaying bactericidal activity as measured by the percent bacterial survival after treatment with the bactericide. Generally, after incubation of a 10^7 cell per ml suspension of target species with the novel bactericide for specified lengths of time, bacteria were collected by centrifugation for 2 minutes. […] Surviving bacteria were determined by scoring colony forming units (CFU) after incubation for 24-48 hours at 37° C. An effective bactericide according to this invention is one which allows less than 0.1% of the initial viable count of the bacteria to survive.
(§4) Incubations were performed in 20 mM TrisHCl, pH 8.0 at 37° C.

[6] = tested on: Listeria monocytogenes; test: Bactericidal activity towards Listeria monocytogenes in Tris buffer; type: cell-based; conditions: L. monocytogenes; pH 8.0, Nisin 3.0 μg/ml, EDTA 0 mM
Protocol: as §3, §4

[7] = tested on: Staphylococcus aureus; test: Bactericidal activity towards Staphylococcus aureus, percent survival; type: cell-based; conditions: S. aureus, EDTA 0 mM
Protocol: as §3
Incubations were performed in 50 mM sodium acetate buffer, pH 5.0 or 20 m
TrisHCl buffer, pH 8.0 at 37° C.

[8] = tested on: Streptococcus mutans; test: Bactericidal activity and kinetics towards Streptococcus mutans in Tris buffer; type: cell-based; conditions: S. mutans; pH 8.0, Nisin 0.1 μg/ml, EDTA 0 mM
Protocol: (§6) All tests in the following examples were performed at 37° C. The efficacy of the enhanced broad range bactericides was determined by assaying bactericidal activity as measured by the percent bacterial survival after treatment with the bactericide. Generally, after incubation of a 10^7 cell per ml suspension of target species with the novel bactericide for specified lengths of time, bacteria were collected by centrifugation for 2 minutes. The bacterial pellet was washed free of the bactericide with a rescue buffer, termed herein Phage buffer (50mM Tris-HCl buffer pH 7.8, 1 mM MgSO4, 4 mM CaCl2, 0.1 M Nacl, and 0.1% gelatin), resuspended and serially diluted into Phage buffer, and 100 μl of the suspended bacteria were spread on nutrient agar plates. Surviving bacteria were determined by scoring colony forming units (CFU) after incubation for 24-48 hours at 37° C.
The suspensions were incubated for various times ranging from 0.5 to 60 minutes with the bactericides.
Incubations were performed in 20 mM TrisHCl, pH 7.3 at 37° C.

[9] = tested on: Streptococcus mutans; test: Rapid bactericidal activity towards Streptococcus mutans in the presence of divalent cation, 10% Fetal Calf Serum; type: cell-based; conditions: S. mutans, Nisin 3, no EDTA, 0 mM
Protocol: as §6
Incubations performed in 10% Fetal Calf Serum at 37° C.

[10] = tested on: Streptococcus agalactiae; test: Bactericidal activity towards Streptococcus agalactiae in milk; type: cell-based; conditions: for % survival at 2h: S. agalactiae in milk at 37° C., Monolaurin 0%
Protocol: as §3
However, the combination of the two agents, 0.1% monolaurin and nisin 0.2 μg/ml, is extremely potent towards S. agalactiae. […] Thus, when the application of nisin is limited by its available activity, a bactericide comprising nisin with a surfactant can be expected to be more useful.
(§5) Incubations were in milk at 37° C.

[11] = tested on: Listeria monocytogenes; test: Bactericidal activity towards Listeria monocytogenes in milk; type: cell-based; conditions: L. monocytogenes in milk at 37° C.; Nisin 100 μg/ml, Monooleate 0%
Protocol: as §3
An example of where the application of nisin is limited by its available activity is illustrated by the data in Table 15B.
as §5

Nisin (ITSISLCTPGCKTGALMGCNMKTATCHCSIHVSK; not fully specified (residues 2, 5, 33, bridges); cysteine pairing not given here; UniProt P13068 24-57, looked up) [polypeptide bacteriocin with antimicrobial properties produced by strains of Streptococcus lactis; known food preservative]
% Survival at 2 hours (Unadhered cells) ([1]; pH 5.0, Nisin 300 μg/ml): 0.1% | % Survival at 2 hours (Unadhered cells) ([1]; pH 8.0, Nisin 300 μg/ml, 1% Bovine serum albumin): 0.02% | % Survival at 2 hours (Unadhered cells) ([1]; pH 8.0, Nisin 300 μg/ml): 7.5% | % Survival at 2 hours ([2]; Nisin 100 μg/ml): 50% | % Survival at 2 hours ([2]; Nisin 300 μg/ml): 38% | Percentage S. typhimurium Survival at 3 hours ([3]; Nisin 50 µg/ml, 20 mM Tris pH 8.0, 37° C): 7.0% | Percentage S. typhimurium Survival at 3 hours ([3]; Nisin 100 µg/ml, 20 mM Tris pH 8.0, 37° C): 1.6% | Percentage S. typhimurium Survival at 3 hours ([3]; Nisin […], 20 mM Tris pH 8.0, 37° C): 51.3% | survival ([3]; S. typhimurium, 100 μg/ml nisin in the absence of EDTA, 20 mM Tris pH 8.0): 1.6% | % Survival at 2 hours ([3]; S. typhimurium, pH 5.0, Nisin 100 μg/ml): 0.6% | % Survival at 2 hours ([3]; S. typhimurium, pH 8.0, Nisin 100 μg/ml): 4% | Percentage S. typhimurium Survival at 3 hours ([3]; Table 2: Nisin 10 μg/ml, Triton X-100 0%, 20 mM Tris pH 8.0): 51.3% | Percentage S. typhimurium Survival at 3 hours ([3]; Table 2: Nisin 50 μg/ml, Triton X-100 0%, 20 mM Tris pH 8.0): 7.0% | Percentage S. typhimurium Survival at 3 hours ([3]; Table 2: Nisin 100 μg/ml, Triton X-100 0%, 20 mM Tris pH 8.0): 1.6% | Percentage S. typhimurium Survival at 3 hours ([3]; Table 3: Nisin 10 μg/ml, Tween20 0%, 20 mM Tris pH 8.0): 51.3% | Percentage S. typhimurium Survival at 3 hours ([3]; Table 3: Nisin 50 μg/ml, Tween20 0%, 20 mM Tris pH 8.0): 7.0% | Percentage S. typhimurium Survival at 3 hours ([3]; Table 3: Nisin 100 μg/ml, Tween20 0%, 20 mM Tris pH 8.0): 1.6% | % Survival at 2 hours ([3]; Table 8, S. typhimurium, Nisin 100 μg/ml, BSA 0%, Tris buffer): 1.6% | Percentage E. coli Survival at 2 hours ([4]; Nisin 30 μg/ml): 27% | Percentage E. coli Survival at 2 hours ([4]; Nisin 100 μg/ml): 25% | Percentage E. coli Survival at 2 hours ([4]; Nisin 300 μg/ml): 8.5% | % Survival 2 hr [5]: 0.22% | % Survival after 2 hr [6]: 0.71% | % Survival 2 hr ([7]; pH 5.0, Nisin 3.0 μg/ml): 0.6% | % Survival 2 hr ([7]; pH 8.0, Nisin 3.0 μg/ml): 7.4% | % Survival after 2 hr [8]: 4.3% | % survival at 1 min. [9]: 2.9% | % survival at 2h ([10]; Nisin 0.02 μg/ml): 100% | % survival at 2h ([10]; Nisin 0.2 μg/ml): 2.2% | bactericidal activity towards Streptococcus agalactiae ([10]; nisin at concentrations up to 0.2 μg/ml, in milk): does not exhibit significant bactericidal activity | % Survival 2 hr [11]: 0.56%
